Measurements reported in ChEMBL document CHEMBL3400121, “Design and synthesis of novel 1,2,3-triazole-pyrimidine-urea hybrids as potential anticancer agents” (Bioorg Med Chem Lett, 2015).

What was measured:
MGC-803 = test: Anticancer activity against human MGC803 cells assessed as inhibition of proliferation after 72 hrs by MTT assay; assay type: functional, cell-based; details: MGC-803, 72 h
[1] = Anticancer activity against human EC109 cells assessed as inhibition of proliferation after 72 hrs by MTT assay; assay type: functional, cell-based; details: ECa-109, 72 h
[2] = Anticancer activity against mouse B16F10 cells assessed as inhibition of proliferation after 72 hrs by MTT assay; assay type: functional, cell-based; details: B16-F10, 72 h
MCF7 = test: Anticancer activity against human MCF7 cells assessed as inhibition of proliferation after 72 hrs by MTT assay; assay type: functional, cell-based; details: MCF7, 72 h
[3] = Cytotoxicity against human GES-1 cells assessed as inhibition of proliferation after 72 hrs by MTT assay; assay type: cell-based; details: GES1, 72 h

SMILES | IC50 (MGC-803) | IC50 [1] | IC50 [2] | IC50 (MCF7) | IC50 [3]
Cc1ccc(-c2nc(SCc3cn(CC(=O)NC(=O)Nc4ccccn4)nn3)nc(Nc3cccc(C(F)(F)F)c3)c2C#N)cc1 | 7.58 µM | 32.3 µM | 9.58 µM | 6.12 µM | –
COc1ccc(Nc2nc(SCc3cn(CC(=O)NC(=O)Nc4ccccn4)nn3)nc(-c3ccc(C)cc3)c2C#N)cc1 | 1.7 µM | 5.87 µM | 8.75 µM | 23.4 µM | 35.7 µM
CC(C)c1ccc(-c2nc(SCc3cn(CC(=O)NC(=O)Nc4ccccn4)nn3)nc(Nc3ccccc3Cl)c2C#N)cc1 | 19.7 µM | 23.4 µM | 6.79 µM | 43.7 µM | –
COc1ccccc1Nc1nc(SCc2cn(CC(=O)NC(=O)Nc3ccccn3)nn2)nc(-c2ccc(C)cc2)c1C#N | 7.96 µM | 7.85 µM | 8.58 µM | 19.7 µM | > 64 µM
COc1cc(-c2nc(SCc3cn(CC(=O)NC(=O)Nc4ccccn4)nn3)nc(Nc3ccc(Cl)cc3)c2C#N)cc(OC)c1OC | 17.5 µM | > 64 µM | 1.11 µM | 45.1 µM | –
CC(C)c1ccc(Nc2nc(SCc3cn(CC(=O)NC(=O)Nc4ccccn4)nn3)nc(-c3ccc(Br)cc3)c2C#N)cc1 | 15.6 µM | > 64 µM | 0.042 µM | 30.6 µM | > 64 µM
O=c1[nH]cc(F)c(=O)[nH]1 [FLUOROURACIL] | 8.43 µM | 11.6 µM | 1.43 µM | 9.12 µM | –
COc1cc(-c2nc(SCc3cn(CC(=O)NC(=O)Nc4ccccn4)nn3)nc(Nc3cccc(C(F)(F)F)c3)c2C#N)cc(OC)c1OC | 8.21 µM | > 64 µM | 24.4 µM | 8.14 µM | > 64 µM
Cc1ccc(Nc2nc(SCc3cn(CC(=O)NC(=O)Nc4ccccn4)nn3)nc(-c3ccc(C(C)C)cc3)c2C#N)cc1 | 3.36 µM | 6.7 µM | 3.06 µM | > 64 µM | > 64 µM
Cc1ccc(-c2nc(SCc3cn(CC(=O)NC(=O)Nc4ccccn4)nn3)nc(Nc3ccc(C(C)C)cc3)c2C#N)cc1 | 19.3 µM | 7.45 µM | 0.035 µM | > 64 µM | > 64 µM
Cc1ccc(-c2nc(SCc3cn(CC(=O)NC(=O)Nc4ccccn4)nn3)nc(Nc3cccc(Cl)c3)c2C#N)cc1 | 7.89 µM | 25.6 µM | 7.58 µM | 14.9 µM | –
Cc1ccc(Nc2nc(SCc3cn(CC(=O)NC(=O)Nc4ccccn4)nn3)nc(-c3ccccc3)c2C#N)cc1 | 7.87 µM | 24.6 µM | 3.3 µM | > 64 µM | –
CC(C)c1ccc(-c2nc(SCc3cn(CC(=O)NC(=O)Nc4ccccn4)nn3)nc(Nc3ccccc3F)c2C#N)cc1 | > 64 µM | 15.5 µM | 8.38 µM | > 64 µM | –
Cc1ccc(Nc2nc(SCc3cn(CC(=O)NC(=O)Nc4ccccn4)nn3)nc(-c3ccc(Br)cc3)c2C#N)cc1 | 13.9 µM | 7.92 µM | 8.16 µM | 14.4 µM | –
COc1ccc(Nc2nc(SCc3cn(CC(=O)NC(=O)Nc4ccccn4)nn3)nc(-c3ccc(C(C)C)cc3)c2C#N)cc1 | > 64 µM | 5.42 µM | 0.36 µM | > 64 µM | –
CC(C)c1ccc(-c2nc(SCc3cn(CC(=O)NC(=O)Nc4ccccn4)nn3)nc(Nc3cccc(Cl)c3)c2C#N)cc1 | > 64 µM | 13.3 µM | 1.13 µM | 18 µM | –

SMILES | IC50 (MGC-803) | IC50 [1] | IC50 [2] | IC50 (MCF7) | IC50 [3]
Cc1ccc(Nc2nc(SCc3cn(CC(=O)NC(=O)Nc4ccccn4)nn3)nc(-c3ccc(C)cc3)c2C#N)cc1 | 9.89 µM | > 64 µM | 1.01 µM | 39.6 µM | –
CC(C)c1ccc(-c2nc(SCc3cn(CC(=O)NC(=O)Nc4ccccn4)nn3)nc(Nc3ccccc3O)c2C#N)cc1 | 16.4 µM | 7.38 µM | 16.1 µM | > 64 µM | –
CC(C)c1ccc(-c2nc(SCc3cn(CC(=O)NC(=O)Nc4ccccn4)nn3)nc(Nc3cccc(C(F)(F)F)c3)c2C#N)cc1 | > 64 µM | 24.2 µM | 1.7 µM | 8.62 µM | –
CC(C)c1ccc(-c2nc(SCc3cn(CC(=O)NC(=O)Nc4ccccn4)nn3)nc(Nc3ccc(Cl)cc3)c2C#N)cc1 | > 64 µM | 11.2 µM | 0.86 µM | > 64 µM | –
CC(C)c1ccc(Nc2nc(SCc3cn(CC(=O)NC(=O)Nc4ccccn4)nn3)nc(-c3ccc(C(C)C)cc3)c2C#N)cc1 | 15.8 µM | 2.49 µM | 4.38 µM | 28.6 µM | –
CC(C)c1ccc(Nc2nc(SCc3cn(CC(=O)NC(=O)Nc4ccccn4)nn3)nc(-c3ccc(Cl)cc3)c2C#N)cc1 | 16.9 µM | > 64 µM | 1.59 µM | 39.9 µM | –
Cc1ccc(Nc2nc(SCc3cn(CC(=O)NC(=O)Nc4ccccn4)nn3)nc(-c3ccc(Cl)cc3)c2C#N)cc1 | 24 µM | 13.1 µM | 1.32 µM | 27 µM | –
Cc1ccccc1Nc1nc(SCc2cn(CC(=O)NC(=O)Nc3ccccn3)nn2)nc(-c2ccc(C(C)C)cc2)c1C#N | 19 µM | 7.23 µM | 18.6 µM | > 64 µM | –
COc1ccccc1Nc1nc(SCc2cn(CC(=O)NC(=O)Nc3ccccn3)nn2)nc(-c2ccc(C(C)C)cc2)c1C#N | > 64 µM | 8.96 µM | 34.6 µM | 19.3 µM | –
COc1cc(-c2nc(SCc3cn(CC(=O)NC(=O)Nc4ccccn4)nn3)nc(Nc3ccc(C(C)C)cc3)c2C#N)cc(OC)c1OC | 35.5 µM | > 64 µM | 1.21 µM | 30.9 µM | –
Cc1cccc(Nc2nc(SCc3cn(CC(=O)NC(=O)Nc4ccccn4)nn3)nc(-c3ccc(C(C)C)cc3)c2C#N)c1 | 25.3 µM | 7.32 µM | 1.65 µM | > 64 µM | –
CC(C)c1ccc(-c2nc(SCc3cn(CC(=O)NC(=O)Nc4ccccn4)nn3)nc(Nc3ccccc3)c2C#N)cc1 | 15.8 µM | > 64 µM | 14.3 µM | > 64 µM | –
CC(C)c1ccc(-c2nc(SCc3cn(CC(=O)NC(=O)Nc4ccccn4)nn3)nc(Nc3ccc(F)cc3)c2C#N)cc1 | 17.5 µM | > 64 µM | 7.25 µM | > 64 µM | –
N#Cc1c(Nc2cccc(C(F)(F)F)c2)nc(SCc2cn(CC(=O)NC(=O)Nc3ccccn3)nn2)nc1-c1ccc(Br)cc1 | 3.6 µM | 2.96 µM | 4.55 µM | 3.11 µM | 38.7 µM
COc1cc(-c2nc(SCc3cn(CC(=O)NC(=O)Nc4ccccn4)nn3)nc(Nc3cccc(Cl)c3)c2C#N)cc(OC)c1OC | 15.4 µM | > 64 µM | 1.42 µM | 24 µM | –
CC(C)c1ccc(-c2nc(SCc3cn(CC(=O)NC(=O)Nc4ccccn4)nn3)nc(Nc3cccc([N+](=O)[O-])c3)c2C#N)cc1 | > 64 µM | 31.3 µM | 26.4 µM | 25.9 µM | –
